Measured values as given in US12139477B2, “Compounds, salts thereof and methods for treatment of diseases” (ACADIA PHARMACEUTICALS INC., priority 2017, dated 2024).

Target: 5HT2A (Homo sapiens, UniProt P28223)
Assay: Receptor Selection and Amplification (R-SAT) functional assay
Assay type: cell-based
Set-up: expressed in transfected cells; host or cells: NIH3T3 cells, pSI mammalian expression vector
Conditions: NIH3T3 cells; Ki from IC50 by Cheng and Prussoff; read-out: 5-HT2a (pKi) (R-SAT) (converted)
From the text: Receptor Selection and Amplification (R-SAT) Assays. […] The IC50 determined in the RSAT assay was converted into a Ki value using the method of Cheng and Prussoff, Biochem Pharmacol., 1973 Dec. 1; 22(23):3099-108. pKi is the negative of the log(Ki).

Chain of 5HT2A (P28223 whole entry): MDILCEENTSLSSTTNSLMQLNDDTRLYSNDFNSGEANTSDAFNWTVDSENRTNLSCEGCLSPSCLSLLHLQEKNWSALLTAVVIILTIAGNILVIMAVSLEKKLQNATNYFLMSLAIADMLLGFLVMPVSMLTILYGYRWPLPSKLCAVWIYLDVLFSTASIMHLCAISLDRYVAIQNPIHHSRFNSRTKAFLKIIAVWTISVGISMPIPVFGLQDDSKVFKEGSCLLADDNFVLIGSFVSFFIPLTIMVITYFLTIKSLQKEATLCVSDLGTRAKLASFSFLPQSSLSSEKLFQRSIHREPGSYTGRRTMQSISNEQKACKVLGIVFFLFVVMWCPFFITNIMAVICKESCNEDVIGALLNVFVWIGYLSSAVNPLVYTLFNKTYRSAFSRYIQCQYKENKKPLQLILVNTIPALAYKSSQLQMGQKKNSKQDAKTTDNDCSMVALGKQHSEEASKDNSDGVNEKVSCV

Compound | Ki [nM]
CC(C)Oc1ccc(CNC(=O)N(Cc2ccc(F)c(F)c2)C2CCN(C)CC2)cc1 [Example 130, 1-[(3,4-difluorophenyl)methyl]-1-(1-methylpiperidin-4-yl)-3-{[4-(propan-2-yloxy)phenyl]methyl}urea; Trifluoroacetic Acid] | 79.4
O=C(O)C(F)(F)F.[2H]C([2H])([2H])N1CCC(N(Cc2ccc(F)cc2F)C(=O)NCc2ccc(OC(C)C)cc2)CC1 [Example 131, 1-[(2,4-difluorophenyl)methyl]-1-[1-(^2H3)methylpiperidin-4-yl]-3-{[4-(propan-2-yloxy)phenyl]methyl}urea; Trifluoroacetic Acid] | 0.631
CC(C)Oc1ccc(CNC(=O)N(Cc2ccc(F)c(F)c2F)C2CCNCC2)cc1 [Example 132, 1-(piperidin-4-yl)-3-{[4-(propan-2-yloxy)phenyl]methyl}-1-[(2,3,4-trifluorophenyl)methyl]urea; Trifluoroacetic Acid] | 79.4
CC(C)Oc1ccc(CNC(=O)N(Cc2ccc(Cl)cc2F)C2CCNCC2)cc1 [Example 133, 3-[(4-chloro-2-fluorophenyl)methyl]-3-(piperidin-4-yl)-1-{[4-(propan-2-yloxy)phenyl]methyl}urea; Trifluoroacetic Acid] | 5.01
CC(C)COc1ccc(CNC(=O)N(Cc2ccc(Cl)cc2F)C2CCNCC2)cc1 [Example 134, 3-[(4-chloro-2-fluorophenyl)methyl]-1-{[4-(2-methylpropoxy)phenyl]methyl}-3-(piperidin-4-yl)urea; Trifluoroacetic Acid] | 3.98
CC(C)Oc1ccc(CNC(=O)N(Cc2ccc(F)c(F)c2F)C2CCN(C)CC2)cc1 [Example 135, 1-(1-methylpiperidin-4-yl)-3-{[4-(propan-2-yloxy)phenyl]methyl}-1-[(2,3,4-trifluorophenyl)methyl]urea; Trifluoroacetic Acid] | 15.8
COc1cc(F)c(CN(C(=O)NCc2ccc(OC(C)C)cc2)C2CCN(C)CC2)c(F)c1 [Example 136, 1-[(2,6-difluoro-4-methoxyphenyl)methyl]-1-(1-methylpiperidin-4-yl)-3-{[4-(propan-2-yloxy)phenyl]methyl}urea; Trifluoroacetic Acid] | 7.94
CCCOc1ccc(CNC(=O)N(Cc2ccc(F)cc2F)C2CCN(C)CC2)cc1 [Example 140, 1-[(2,4-difluorophenyl)methyl]-1-(1-methylpiperidin-4-yl)-3-[(4-propoxyphenyl)methyl]urea] | 3.16
COc1cc(CNC(=O)N(Cc2ccc(F)cc2F)C2CCN(C)CC2)ccc1F [Example 146, 1-[(2,4-difluorophenyl)methyl]-3-[(4-fluoro-3-methoxyphenyl)methyl]-1-(1-methylpiperidin-4-yl)urea; Trifluoroacetic Acid] | 5.01
CCCCC(CC)COc1ccc(CNC(=O)N(Cc2ccc(F)cc2F)C2CCN(C)CC2)cc1 (stereo not drawn) [Example 147, 1-[(2,4-difluorophenyl)methyl]-3-({4-[(2-ethylhexyl)oxy]phenyl}methyl)-1-(1-methylpiperidin-4-yl)urea; Trifluoroacetic Acid] | 3.16
COc1cc(F)c(CNC(=O)N(Cc2ccc(F)cc2F)C2CCN(C)CC2)c(F)c1 [Example 150, 1-[(2,6-difluoro-4-methoxyphenyl)methyl]-3-[(2,4-difluorophenyl)methyl]-3-(1-methylpiperidin-4-yl)urea; Trifluoroacetic Acid] | 5.01
O=C(O)C(F)(F)F.[2H]C1([2H])Oc2ccc(CNC(=O)N(Cc3ccc(F)cc3F)C3CCN(C)CC3)cc2C1([2H])[2H] [Example 159, 1-[(2,4-difluorophenyl)methyl]-3-{[2,3-dihydro(2,2,3,3-^2H4)-1-benzofuran-5-yl]methyl}-1-(1-methylpiperidin-4-yl)urea; Trifluoroacetic Acid] | 7.94
